Laboratory results taken from PubChem BioAssay (NCI).
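In this assay, cells in 96-well plates receive the compound at five concentrations for 48 hours. Endpoints are linearly interpolated between the surrounding concentrations. TGI is the concentration that stops growth completely.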

Tests used:
Assay in all cases: NCI tumour cell line growth inhibition, 48 h
786-0 renal = system: 786-0 renal
A498 renal = system: A498 renal
A549 NSCLC = system: A549 NSCLC
ACHN renal = system: ACHN renal
BT-549 breast = system: BT-549 breast
CAKI-1 renal = system: CAKI-1 renal
CCRF-CEM leukemia = system: CCRF-CEM leukemia
COLO 205 colon = system: COLO 205 colon
DU-145 prostate = system: DU-145 prostate
EKVX NSCLC = system: EKVX NSCLC
HCC-2998 colon = system: HCC-2998 colon
HCT-116 colon = system: HCT-116 colon
HCT-15 colon = system: HCT-15 colon
HL-60(TB) leukemia = system: HL-60(TB) leukemia
HOP-62 NSCLC = system: HOP-62 NSCLC
HOP-92 NSCLC = system: HOP-92 NSCLC
HS 578T breast = system: HS 578T breast
HT29 colon = system: HT29 colon
IGROV1 ovarian = system: IGROV1 ovarian
K-562 leukemia = system: K-562 leukemia
KM12 colon = system: KM12 colon
LOX IMVI melanoma = system: LOX IMVI melanoma
M14 melanoma = system: M14 melanoma
MALME-3M melanoma = system: MALME-3M melanoma
MCF7 breast = system: MCF7 breast
MDA-MB-231 breast = system: MDA-MB-231 breast
MDA-MB-435 = system: MDA-MB-435
MDA-N = system: MDA-N
MOLT-4 leukemia = system: MOLT-4 leukemia
NCI-H226 lung = system: NCI-H226 lung
NCI-H23 lung = system: NCI-H23 lung
NCI-H460 lung = system: NCI-H460 lung
NCI-H522 lung = system: NCI-H522 lung
NCI/ADR-RES ovarian = system: NCI/ADR-RES ovarian
OVCAR-3 ovarian = system: OVCAR-3 ovarian
OVCAR-4 ovarian = system: OVCAR-4 ovarian
OVCAR-5 ovarian = system: OVCAR-5 ovarian
OVCAR-8 ovarian = system: OVCAR-8 ovarian
PC-3 prostate = system: PC-3 prostate
RPMI-8226 leukemia = system: RPMI-8226 leukemia
RXF 393 renal = system: RXF 393 renal
SF-268 CNS = system: SF-268 CNS
SF-295 CNS = system: SF-295 CNS
SF-539 CNS = system: SF-539 CNS
SK-MEL-2 melanoma = system: SK-MEL-2 melanoma
SK-MEL-28 melanoma = system: SK-MEL-28 melanoma
SK-MEL-5 melanoma = system: SK-MEL-5 melanoma
SK-OV-3 ovarian = system: SK-OV-3 ovarian
SN12C renal = system: SN12C renal
SNB-19 CNS = system: SNB-19 CNS
SNB-75 CNS = system: SNB-75 CNS
SR leukemia = system: SR leukemia
SW-620 colon = system: SW-620 colon
T-47D breast = system: T-47D breast
TK-10 renal = system: TK-10 renal
U251 CNS = system: U251 CNS
UACC-257 melanoma = system: UACC-257 melanoma
UACC-62 melanoma = system: UACC-62 melanoma
UO-31 renal = system: UO-31 renal

SMILES: COc1ccc(C2/C(=C(\O)c3ccccc3)C(=O)C(O)(CC(=O)c3ccccc3)N2c2ccc(OC)cc2)cc1 (stereo not given)
- TGI (786-0 renal): 46.7 µM
- TGI (A498 renal): > 100 µM
- TGI (A549 NSCLC): > 100 µM
- TGI (ACHN renal): 68.8 µM
- TGI (BT-549 breast): > 56.8 µM
- TGI (CAKI-1 renal): > 75.8 µM
- TGI (CCRF-CEM leukemia): 14.5 µM
- TGI (COLO 205 colon): 38.8 µM
- TGI (DU-145 prostate): > 100 µM
- TGI (EKVX NSCLC): > 100 µM
- TGI (HCC-2998 colon): > 47.7 µM
- TGI (HCT-116 colon): 39.8 µM
- TGI (HCT-15 colon): 37.2 µM
- TGI (HL-60(TB) leukemia): 28.7 µM
- TGI (HOP-62 NSCLC): > 100 µM
- TGI (HOP-92 NSCLC): 32.5 µM
- TGI (HS 578T breast): > 100 µM
- TGI (HT29 colon): > 100 µM
- TGI (IGROV1 ovarian): > 77.7 µM
- TGI (K-562 leukemia): 58.8 µM
- TGI (KM12 colon): 36.9 µM
- TGI (LOX IMVI melanoma): 39.2 µM
- TGI (M14 melanoma): 99.6 µM
- TGI (MALME-3M melanoma): 75.7 µM
- TGI (MCF7 breast): > 88.5 µM
- TGI (MDA-MB-231 breast): 50.9 µM
- TGI (MDA-MB-435): 47.7 µM
- TGI (MDA-N): 82.5 µM
- TGI (MOLT-4 leukemia): 54 µM
- TGI (NCI-H226 lung): 66.3 µM
- TGI (NCI-H23 lung): > 100 µM
- TGI (NCI-H460 lung): > 84.8 µM
- TGI (NCI-H522 lung): 20.5 µM
- TGI (NCI/ADR-RES ovarian): 54.7 µM
- TGI (OVCAR-3 ovarian): 26.2 µM
- TGI (OVCAR-4 ovarian): > 100 µM
- TGI (OVCAR-5 ovarian): > 100 µM
- TGI (OVCAR-8 ovarian): > 100 µM
- TGI (PC-3 prostate): > 81.6 µM
- TGI (RPMI-8226 leukemia): 14.8 µM
- TGI (RXF 393 renal): > 85.1 µM
- TGI (SF-268 CNS): > 100 µM
- TGI (SF-295 CNS): > 100 µM
- TGI (SF-539 CNS): 59.3 µM
- TGI (SK-MEL-2 melanoma): 41.4 µM
- TGI (SK-MEL-28 melanoma): > 86.4 µM
- TGI (SK-MEL-5 melanoma): 29.2 µM
- TGI (SK-OV-3 ovarian): 99.3 µM
- TGI (SN12C renal): 85.5 µM
- TGI (SNB-19 CNS): > 100 µM
- TGI (SNB-75 CNS): > 100 µM
- TGI (SR leukemia): 14.3 µM
- TGI (SW-620 colon): > 56.6 µM
- TGI (T-47D breast): 98 µM
- TGI (TK-10 renal): > 100 µM
- TGI (U251 CNS): > 64.3 µM
- TGI (UACC-257 melanoma): 31.9 µM
- TGI (UACC-62 melanoma): > 100 µM
- TGI (UO-31 renal): 32.6 µM

SMILES: CCN(CC)CCn1ncc2c3c(=O)c4cccnc4n(CCN(CC)CC)c3ccc21
- TGI (786-0 renal): > 10 µM
- TGI (A498 renal): > 10 µM
- TGI (A549 NSCLC): > 10 µM
- TGI (ACHN renal): > 10 µM
- TGI (BT-549 breast): > 10 µM
- TGI (CAKI-1 renal): > 10 µM
- TGI (CCRF-CEM leukemia): > 10 µM
- TGI (COLO 205 colon): 6.67 µM
- TGI (DU-145 prostate): > 10 µM
- TGI (EKVX NSCLC): > 10 µM
- TGI (HCC-2998 colon): > 10 µM
- TGI (HCT-116 colon): > 10 µM
- TGI (HCT-15 colon): > 10 µM
- TGI (HL-60(TB) leukemia): > 10 µM
- TGI (HOP-62 NSCLC): > 10 µM
- TGI (HOP-92 NSCLC): > 10 µM
- TGI (HS 578T breast): > 10 µM
- TGI (HT29 colon): > 10 µM
- TGI (IGROV1 ovarian): > 10 µM
- TGI (K-562 leukemia): > 10 µM
- TGI (KM12 colon): > 10 µM
- TGI (LOX IMVI melanoma): > 10 µM
- TGI (M14 melanoma): > 10 µM
- TGI (MALME-3M melanoma): > 10 µM
- TGI (MCF7 breast): > 10 µM
- TGI (MDA-MB-231 breast): > 10 µM
- TGI (MDA-MB-435): > 10 µM
- TGI (MDA-N): > 10 µM
- TGI (MOLT-4 leukemia): > 10 µM
- TGI (NCI-H226 lung): > 10 µM
- TGI (NCI-H23 lung): > 10 µM
- TGI (NCI-H460 lung): > 10 µM
- TGI (NCI-H522 lung): > 10 µM
- TGI (NCI/ADR-RES ovarian): > 10 µM
- TGI (OVCAR-3 ovarian): > 10 µM
- TGI (OVCAR-4 ovarian): > 10 µM
- TGI (OVCAR-5 ovarian): > 10 µM
- TGI (OVCAR-8 ovarian): > 10 µM
- TGI (PC-3 prostate): > 10 µM
- TGI (RPMI-8226 leukemia): > 10 µM
- TGI (RXF 393 renal): > 10 µM
- TGI (SF-268 CNS): > 10 µM
- TGI (SF-295 CNS): > 10 µM
- TGI (SF-539 CNS): > 10 µM
- TGI (SK-MEL-2 melanoma): > 10 µM
- TGI (SK-MEL-28 melanoma): > 10 µM
- TGI (SK-MEL-5 melanoma): > 10 µM
- TGI (SK-OV-3 ovarian): > 10 µM
- TGI (SN12C renal): > 10 µM
- TGI (SNB-19 CNS): > 10 µM
- TGI (SNB-75 CNS): > 10 µM
- TGI (SR leukemia): > 10 µM
- TGI (SW-620 colon): > 10 µM
- TGI (T-47D breast): > 10 µM
- TGI (TK-10 renal): > 10 µM
- TGI (U251 CNS): > 10 µM
- TGI (UACC-257 melanoma): > 10 µM
- TGI (UACC-62 melanoma): > 10 µM

SMILES: CCOC(=O)NC(Nc1ccc(OC(F)(F)F)cc1)(C(F)(F)F)C(F)(F)F
- TGI (786-0 renal): > 100 µM
- TGI (A498 renal): > 100 µM
- TGI (A549 NSCLC): > 100 µM
- TGI (ACHN renal): > 100 µM
- TGI (BT-549 breast): > 100 µM
- TGI (CAKI-1 renal): > 100 µM
- TGI (CCRF-CEM leukemia): > 100 µM
- TGI (COLO 205 colon): > 100 µM
- TGI (DU-145 prostate): > 100 µM
- TGI (EKVX NSCLC): > 100 µM
- TGI (HCC-2998 colon): > 100 µM
- TGI (HCT-116 colon): > 100 µM
- TGI (HCT-15 colon): > 100 µM
- TGI (HL-60(TB) leukemia): > 100 µM
- TGI (HOP-62 NSCLC): > 100 µM
- TGI (HOP-92 NSCLC): > 100 µM
- TGI (HS 578T breast): > 100 µM
- TGI (HT29 colon): > 100 µM
- TGI (IGROV1 ovarian): > 100 µM
- TGI (K-562 leukemia): > 100 µM
- TGI (KM12 colon): > 100 µM
- TGI (LOX IMVI melanoma): > 100 µM
- TGI (M14 melanoma): > 100 µM
- TGI (MALME-3M melanoma): > 100 µM
- TGI (MCF7 breast): > 100 µM
- TGI (MDA-MB-231 breast): > 100 µM
- TGI (MDA-MB-435): > 100 µM
- TGI (MDA-N): > 100 µM
- TGI (MOLT-4 leukemia): > 100 µM
- TGI (NCI-H226 lung): > 100 µM
- TGI (NCI-H23 lung): > 100 µM
- TGI (NCI-H460 lung): > 100 µM
- TGI (NCI-H522 lung): > 100 µM
- TGI (NCI/ADR-RES ovarian): > 100 µM
- TGI (OVCAR-3 ovarian): > 100 µM
- TGI (OVCAR-5 ovarian): > 100 µM
- TGI (OVCAR-8 ovarian): > 100 µM
- TGI (PC-3 prostate): > 100 µM
- TGI (RPMI-8226 leukemia): > 100 µM
- TGI (RXF 393 renal): > 100 µM
- TGI (SF-268 CNS): > 100 µM
- TGI (SF-295 CNS): > 100 µM
- TGI (SF-539 CNS): > 100 µM
- TGI (SK-MEL-2 melanoma): > 100 µM
- TGI (SK-MEL-28 melanoma): > 100 µM
- TGI (SK-MEL-5 melanoma): > 100 µM
- TGI (SK-OV-3 ovarian): > 100 µM
- TGI (SN12C renal): > 100 µM
- TGI (SNB-19 CNS): > 100 µM
- TGI (SNB-75 CNS): > 100 µM
- TGI (SR leukemia): > 100 µM
- TGI (SW-620 colon): > 100 µM
- TGI (T-47D breast): > 100 µM
- TGI (TK-10 renal): > 100 µM
- TGI (U251 CNS): > 100 µM
- TGI (UACC-257 melanoma): > 100 µM
- TGI (UACC-62 melanoma): > 100 µM
- TGI (UO-31 renal): > 100 µM
